Patent US10815275B2, “Antimicrobial peptoids with improved selectivity and use thereof” (priority 2018, dated 2020)
In brackets after ≈: the same amount, converted by molar mass. Like-named read-outs stand apart in the source and are kept apart here. Non-standard residues stand in square brackets, D forms with d. Residues, ends and D or L forms follow the SMILES beside them. Nspe = C[C@H](NCC(=O)O)c1ccccc1; Nphe = O=C(O)CNCc1ccccc1; Nlys = NCCCCNCC(=O)O

What was measured:
E. coli strain ATCC25922 = type: cell-based; settings: for MBC E. coli: ATCC25922; for MIC E. coli: ATCC25922, 18 h
Description: (§1) In order to measure antimicrobial activity of the peptoids, Gram-positive S. aureus strain KCTC1621, or Gram-negative E. coli strain ATCC25922 was treated with the peptoids prepared in Preparation Example 1, and minimum inhibitory concentrations were measured. Peptoid NOS. 1 and 2 are already known peptoids and were used for the purpose of making a comparison with novel peptoids in terms of antimicrobial activity.
(§2) Specifically, S. aureus strain KCTC1621 or E. coli strain ATCC25922 was inoculated into Mueller Hinton Broth (MHB2) liquid medium on which cations were adjusted, cultured at a temperature of 37° C. for 18 hours, and then subcultured for 4 hours. Thereafter, the strains were diluted with MHB2 liquid medium containing 0.2% bovine serum albumin and 0.01% acetic acid so that each bacterial number was 2×10^5 colony-forming units (CFU) per 1 mL, and dispensed into 96-well microtiter plates at 100 μL each. A peptoid stock which is 40-fold more concentrated than a concentration to be tested was added to each well at 2.5 μL or lower so that the peptoid stock was 2-fold serially diluted using sterile water. Thereafter, the plates were incubated at a temperature of 37° C. for 18 hours.
(§3) Thereafter, absorbance was measured at a wavelength of 600 nm using a microplate reader (Bio-Rad). The lowest peptoid concentration that completely suppresses growth of microorganisms was measured by a minimum inhibitory concentration (MIC) and a minimum bactericidal concentration (MBC), and the measurement results are shown in Table 5 below. Each of the MIC values was calculated as an average value of numerical values obtained through three independent experiments.

[1] = tested on: S. aureus strain KCTC1621; type: cell-based; settings: for MBC S. aureus: KCTC1621; for MIC S. aureus: KCTC1621, 18 h
Description: as §1, §2, §3

P. aeruginosa (PA01) = assay: MIC in multidrug-resistant bacteria panel, modified microdilution; type: cell-based; settings: overnight, 37° C.
Description: (§4) Minimum inhibitory concentrations of the prepared peptoids for multidrug-resistant bacteria were measured using a modified microdilution method in Difco Mueller Hinton medium, and tests were done on a panel of bacterial pathogens which have resistance and tolerance against common antibiotics.
(§5) Briefly, a peptoid concentrate, which is 10-fold more concentrated than a final concentration, was serially diluted with a medium containing 0.2% bovine serum albumin and 0.01% acetic acid. 10 μL of the 10-fold concentrated peptoid concentrate and 90 μL of Muller Hinton medium were added to each well of a 96-well polypropylene microtitre plate. Bacteria were added to the plate so that a final concentration thereof was 2×10^5 CFU/mL, and then incubated overnight at a temperature of 37° C. The minimum inhibitory concentration was defined as a concentration at which no bacterial growth is observed.

E. coli (63103 ESBL) = assay: as above; type: cell-based; settings: overnight, 37° C.
Description: as §4, §5

[2] = tested on: S. epidermidis (ET-024 MRSA); assay: as above; type: cell-based; settings: overnight, 37° C.
Description: as §4, §5

red blood cells = assay: Hemolytic activity on red blood cells; type: cell-based, mouse
Description: In order to identify, through red blood cell hemolytic activity in mice, whether the peptoids synthesized in Preparation Example 1 are cytotoxic, red blood cells isolated from 10 mL of mouse blood were washed three times with phosphate-buffered saline (PBS, mixed solution of 35 mM phosphate buffer/150 mM NaCl, pH 7.4), and then centrifuged at a centrifugal force of 1,000 ×g for 10 minutes. A 10% (v/v) red blood cell solution diluted with PBS was dispensed into a 96-well microtiter plate at 150 μL each, and then a peptide solution was added at 50 μL each. Thereafter, the 96-well microtiter plate was incubated at a temperature of 37° C. for 1 hour.
The incubated 96-well microtiter plate was centrifuged at a centrifugal force of 1,000×g for 5 minutes. Thereafter, supernatant was taken at 100 μL each and transferred to a new 96-well microtiter plate. Then, absorbance at a wavelength of 540 nm was measured (Table 6).
In this case, a value obtained in a case of being treated with 0.1% (v/v) Triton X-100 was set as 100% hemolysis, and hemolytic activity (degree of cell destruction) of the peptoids was calculated using the following Equation 1. In the Equation 1, A is absorbance of the peptoid solution at a wavelength of 540 nm, B is absorbance of 0.1% Triton X-100 at a wavelength of 540 nm, and C is absorbance of the PBS solution at a wavelength of 540 nm. In this case, Peptoid NO. […] Degree of cell destruction (% hemolysis)=(A−C)/(B−C)[…] [Equation 1]
In Table 6, HD10 means a peptoid concentration which causes 10% hemolysis of red blood cells, and HD50 means a peptoid concentration which causes 50% hemolysis of red blood cells. In addition, Hmax is a hemolysis rate (%) at 200 μM which is the highest peptoid concentration used in the experiment.
Hemolytic activity of Peptoid NOS. 1, 18 to 23, and the peptide Pexiganan was measured in the same manner as in Experimental Example 2.

E. coli = assay: Selectivity analysis, HD10 divided by MIC for E. coli; settings: HD10 of Table 6 divided by MIC for E. coli ATCC25922
Description: In order to identify changes in selectivity depending on alteration of degree of folding in helical structure of peptoids, selectivity of each peptoid was calculated using the resultant values measured in the Experimental Examples 1 and 2. The selectivity was obtained by dividing the HD10 value by the minimum inhibitory concentration for E. coli (Table 8).

S. aureus (ATCC25923) = assay: MIC in multidrug-resistant bacteria panel, modified microdilution; type: cell-based; settings: overnight, 37° C.
Description: as §4, §5

in vitro = type: cell-based
Description: In order to determine whether the peptoids were cytotoxic against human cell lines, […] cell line (Korean Cell Line Bank) which is a human lung cell line was cultured in a DMEM (Dulbecco's modified Eagle's medium) culture solution containing 10% (v/v) fetal bovine serum (FBS) at 5% CO2 and a temperature of 37° C. 100 μL of DMEM medium was dispensed into each well of a 96-well microtiter plate so that the number of cells was 1.3×10^4, and then incubated overnight at a temperature of 37° C. in a 5% CO2 incubator. In this case, a DMEM medium was used as a negative control. Thereafter, the peptoid which is 2-fold serially diluted using sterile water was added to each well, and then incubated for 24 hours.
After incubation, 20 μL of an MTS solution [3-(4,5-dimethylthiazol-2-yl)-5-(3-carboxymethoxyphenyl)-2-(4-sulfophenyl)-2H-tetrazolium, inner salt; MTS] was added thereto and incubated at a temperature of 37° C. for 4 hours. Thereafter, % survival was calculated by measuring absorbance at a wavelength of 490 nm using an ELISA reader. The % survival was calculated as a percentage obtained by dividing the absorbance value for a well-treated with the peptoid by the absorbance value for a well containing control cells which had not been treated with the peptoid.

E. coli strain DH5α = assay: Antimicrobial activity of peptoids with altered cationic residues, MIC; type: cell-based; settings: LB medium, 18 h
Description: (§6) In order to measure antimicrobial activity of the peptoids, Gram-positive B. subtilis or Gram-negative E. coli strain DH5α was treated with Peptoid NOS. 1, 18 to 23, and the peptide Pexiganan, and minimum inhibitory concentrations were measured. Peptoid NOS. 1 and 2, and the peptide Pexiganan are already known antimicrobial peptoids and peptides, and were used for the purpose of making a comparison with novel peptoids in terms of antimicrobial activity.
(§7) Specifically, B. subtilis or E. coli DHS a was inoculated into LB liquid medium, and cultured at a temperature of 37° C. for 18 hours. Thereafter, the bacteria were diluted with LB medium so that each bacterial number was 2×10^5 colony-forming units (CFU) per 1 mL, and dispensed into 96-well microtiter plates at 100 μL each. The peptoid, which is 2-fold serially diluted using sterile water, was added to each well at 100 μL each. The plates were incubated at a temperature of 37° C. for 18 hours.
as §3, with “(MIC),” for “(MIC) and a minimum bactericidal concentration (MBC),”, “12” for “5”, “minimum inhibitory concentration” for “MIC”

B. subtilis = type: cell-based; settings: 18 h
Description: as §6, §7
as §3, with “(MIC),” for “(MIC) and a minimum bactericidal concentration (MBC),”, “12” for “5”, “minimum inhibitory concentration” for “MIC”

Row | MIC E. coli (E. coli strain ATCC25922) [µM] | MIC S. aureus [1] [µM] | Selectivity [HD10/MIC (E. coli)] (E. coli) | SMILES | MBC E. coli (E. coli strain ATCC25922) [µM] | MBC S. aureus [1] [µM] | minimum inhibitory concentration P. aeruginosa (PA01) (P. aeruginosa (PA01)) | minimum inhibitory concentration E. coli (63103 ESBL) (E. coli (63103 ESBL)) | minimum inhibitory concentration S. epidermidis (ET-024 MRSA) [2] | HD50 (red blood cells) | minimum inhibitory concentration S. aureus (ATCC25923) (S. aureus (ATCC25923)) | HD10 (red blood cells) | CC50 at 24 h (in vitro; human) [µM] | MIC E. coli (E. coli strain DH5α) [µM] | MIC B. subtilis (B. subtilis) [µM] | CC50 at 24 h (in vitro; concentration indicating 50% survival, 24 h, MTS, read-out: LC50) [µM]
1 | 25 (≈ 42.7 µg/mL) | 3.1 (≈ 5.29 µg/mL) | >8.0 | NCCCCNCC(=O)N(CC(=O)N(CC(=O)N(CCCCN)CC(=O)N(CC(=O)N(CC(=O)N(CCCCN)CC(=O)N(CC(=O)N(CC(=O)N(CCCCN)CC(=O)N(CC(=O)N(CC(N)=O)Cc1ccccc1)Cc1ccccc1)Cc1ccccc1)Cc1ccccc1)Cc1ccccc1)Cc1ccccc1)Cc1ccccc1)Cc1ccccc1 [compound 2] (H-[Nlys][Nphe][Nphe][Nlys][Nphe][Nphe][Nlys][Nphe][Nphe][Nlys][Nphe][Nphe]-NH2) | >25 | 6.3 (≈ 10.8 µg/mL) | 6.3 | 12.5 | <0.8 to 0.8 | >200/>200 |  |  |  |  |  | 
2 | 12.5 (≈ 22 µg/mL) | 3.1 (≈ 5.47 µg/mL) | 4.9 | C[C@@H](c1ccccc1)N(CC(N)=O)C(=O)CN(C(=O)CN(CCCCN)C(=O)CN(Cc1ccccc1)C(=O)CN(Cc1ccccc1)C(=O)CN(CCCCN)C(=O)CN(Cc1ccccc1)C(=O)CN(Cc1ccccc1)C(=O)CN(CCCCN)C(=O)CN(C(=O)CN(C(=O)CNCCCCN)[C@@H](C)c1ccccc1)[C@@H](C)c1ccccc1)[C@@H](C)c1ccccc1 [compound 11] | 25 (≈ 44.1 µg/mL) | 6.3 (≈ 11.1 µg/mL) | 6.3 | 6.3 | <0.8 to 0.8 | > 200 | 3.1 | 61.6 |  |  |  | 
3 | 25 (≈ 43.4 µg/mL) | 3.1 (≈ 5.38 µg/mL) | 4.8 | C[C@@H](c1ccccc1)N(CC(=O)N(CCCCN)CC(=O)N(CC(=O)N(CC(=O)N(CCCCN)CC(=O)N(CC(=O)N(CC(=O)N(CCCCN)CC(=O)N(CC(=O)N(CC(N)=O)Cc1ccccc1)Cc1ccccc1)Cc1ccccc1)Cc1ccccc1)Cc1ccccc1)Cc1ccccc1)C(=O)CN(C(=O)CNCCCCN)[C@@H](C)c1ccccc1 [compound 17] (H-[Nlys][Nspe][Nspe][Nlys][Nphe][Nphe][Nlys][Nphe][Nphe][Nlys][Nphe][Nphe]-NH2) | 25 (≈ 43.4 µg/mL) | 3.1 (≈ 5.38 µg/mL) | 6.3 |  | <0.8 to 0.8 | > 200 |  |  |  |  |  | 
4 |  |  |  | C[C@@H](c1ccccc1)N(CC(N)=O)C(=O)CN(C(=O)CN(CCCCN)C(=O)CN(C(=O)CN(C(=O)CN(CCCCN)C(=O)CN(C(=O)CN(C(=O)CNCCCCN)[C@@H](C)c1ccccc1)[C@@H](C)c1ccccc1)[C@@H](C)c1ccccc1)[C@@H](C)c1ccccc1)[C@@H](C)c1ccccc1 [compound 18] (H-[Nlys][Nspe][Nspe][Nlys][Nspe][Nspe][Nlys][Nspe][Nspe]-NH2) |  |  |  |  |  |  |  |  | 40 | 3.1 (≈ 4.24 µg/mL) | 1.6 (≈ 2.19 µg/mL) | 
5 |  |  |  | C[C@@H](c1ccc(F)cc1)N(CC(N)=O)C(=O)CN(C(=O)CN(CCCCN)C(=O)CN(C(=O)CN(C(=O)CN(CCCCN)C(=O)CN(C(=O)CN(C(=O)CN(CCCCN)C(=O)CN(C(=O)CN(C(=O)CNCCCCN)[C@@H](C)c1ccc(F)cc1)[C@@H](C)c1ccc(F)cc1)[C@@H](C)c1ccc(F)cc1)[C@@H](C)c1ccc(F)cc1)[C@@H](C)c1ccc(F)cc1)[C@@H](C)c1ccc(F)cc1)[C@@H](C)c1ccc(F)cc1 [compound 21] |  |  |  |  |  | <6.25/<6.25 |  | <6.25/<6.25 | 9.5 |  | 0.4 (≈ 0.785 µg/mL) | 
6 |  |  |  | C[C@@H](c1ccccc1)N(CC(=O)N(CCCCN)CC(=O)N(CC(=O)N(CC(=O)N(CCCCN)CC(=O)N(CC(=O)N(CC(=O)N(CCCCN)CC(=O)N(CC(=O)N(CC(=O)N(CCCCN)CC(N)=O)[C@@H](C)c1ccccc1)[C@@H](C)c1ccccc1)[C@@H](C)c1ccccc1)[C@@H](C)c1ccccc1)[C@@H](C)c1ccccc1)[C@@H](C)c1ccccc1)C(=O)CN(C(=O)CNCCCCN)[C@@H](C)c1ccccc1 [compound 22] (H-[Nlys][Nspe][Nspe][Nlys][Nspe][Nspe][Nlys][Nspe][Nspe][Nlys][Nspe][Nspe][Nlys]-NH2) |  |  |  |  |  |  |  | 19.5 |  |  | 0.4 (≈ 0.779 µg/mL) | 10
7 |  |  |  | C[C@@H](c1ccccc1)N(CC(=O)N(CCCCN)CC(=O)N(CC(=O)N(CC(=O)N(CCCCN)CC(=O)N(CC(=O)N(CC(=O)N(CCCCN)CC(N)=O)[C@@H](C)c1ccccc1)[C@@H](C)c1ccccc1)[C@@H](C)c1ccccc1)[C@@H](C)c1ccccc1)C(=O)CN(C(=O)CNCCCCN)[C@@H](C)c1ccccc1 [compound 23] (H-[Nlys][Nspe][Nspe][Nlys][Nspe][Nspe][Nlys][Nspe][Nspe][Nlys]-NH2) |  |  |  |  |  |  |  |  | 80.5 | 1.6 (≈ 2.4 µg/mL) | 0.8 (≈ 1.2 µg/mL) | 
